Results reported in PMC11012793, “Mulberry Leaf Compounds and Gut Microbiota in Alzheimer’s Disease and Diabetes: A Study Using Network Pharmacology, Molecular Dynamics Simulation, and Cellular Assays” (International Journal of Molecular Sciences, 2024).

Molecular target: T1, protein tyrosine phosphatase 1B (PTP1B) (Homo sapiens, UniProt P18031)
T1 construct: gene PTPN1; catalytic domain (Met1-Glu298) of PTP1B (ΔPTP1B)
T1 sequence (P18031 1-298): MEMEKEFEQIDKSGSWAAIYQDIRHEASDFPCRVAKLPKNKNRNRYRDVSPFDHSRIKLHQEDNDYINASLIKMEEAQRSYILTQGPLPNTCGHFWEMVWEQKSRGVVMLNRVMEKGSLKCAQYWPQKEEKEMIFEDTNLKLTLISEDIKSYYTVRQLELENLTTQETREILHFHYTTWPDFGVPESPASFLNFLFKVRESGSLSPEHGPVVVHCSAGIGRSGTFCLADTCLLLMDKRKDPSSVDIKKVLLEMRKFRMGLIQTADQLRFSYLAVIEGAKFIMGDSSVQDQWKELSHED
Assay: p-NPP phosphatase assay with purified recombinant PTP1B catalytic domain, absorbance at […] nm
Format: biochemical

Molecule `O=c1c(O)c(-c2ccc(O)cc2)oc2cc(O)cc(O)c12` [kaempferol] has an IC50 of 279 µM.
